Measured values taken from ChEMBL document CHEMBL1131689, “Synthesis and evaluation of geldanamycin-estradiol hybrids” (Bioorg Med Chem Lett, 1999).
pIC50: −log10 of the molar value.

Key:
Format in all cases: functional, cell-based
[1] = Inhibition of steady-state expression of ER in MCF-7 breast cancer cells; conditions: Homo sapiens, MCF7
[2] = Inhibition of steady-state expression of HER2 in MCF-7 breast cancer cells; conditions: Homo sapiens, MCF7
Heat shock protein HSP90 = Heat shock protein HSP90 (Homo sapiens, UniProt P07900+P08238); assay: Inhibition of steady-state expression of Raf-1 in MCF-7 breast cancer cells; conditions: mcf7

| Compound | pIC50 [1] | pIC50 [2] | IC50 (Heat shock protein HSP90) | pIC50 (Heat shock protein HSP90) |
| --- | --- | --- | --- | --- |
| CO[C@@H]1/C=C\C=C(/C)C(=O)NC2=CC(=O)C(NCC#CC[C@@H]3C[C@H]4[C@@H]5CCc6cc(O)ccc6[C@H]5CC[C@]4(C)[C@H]3O)=C(C[C@H](C)C[C@@H](OC)[C@@H](O)[C@H](C)/C=C(\C)[C@H]1OC(N)=O)C2=O | 6.66 | 7.00 | 1500 nM |  |
| CO[C@@H]1/C=C\C=C(/C)C(=O)NC2=CC(=O)C(NC/C=C/C[C@@H]3C[C@H]4[C@@H]5CCc6cc(O)ccc6[C@H]5CC[C@]4(C)[C@H]3O)=C(C[C@H](C)C[C@@H](OC)[C@@H](O)[C@H](C)/C=C(\C)[C@H]1OC(N)=O)C2=O | 7.10 | 7.00 | 1500 nM |  |
| CO[C@@H]1/C=C\C=C(/C)C(=O)NC2=CC(=O)C(NCCC[C@@H]3C[C@H]4[C@@H]5CCc6cc(O)ccc6[C@H]5CC[C@]4(C)[C@H]3O)=C(C[C@H](C)C[C@@H](OC)[C@@H](O)[C@H](C)/C=C(\C)[C@H]1OC(N)=O)C2=O | < 5.70 | < 5.70 |  | < 5.70 |
| CO[C@@H]1/C=C\C=C(/C)C(=O)NC2=CC(=O)C(NCCCC[C@@H]3C[C@H]4[C@@H]5CCc6cc(O)ccc6[C@H]5CC[C@]4(C)[C@H]3O)=C(C[C@H](C)C[C@@H](OC)[C@@H](O)[C@H](C)/C=C(\C)[C@H]1OC(N)=O)C2=O | < 5.70 | < 5.70 |  | < 5.70 |
